Laboratory results from ChEMBL document CHEMBL1147265, “Lucidenic acids P and Q, methyl lucidenate P, and other triterpenoids from the fungus Ganoderma lucidum and their inhibitory effects on Epstein-Barr virus activation” (J Nat Prod, 2003).

Legend:
[1] = Cytotoxicity against human Raji cells assessed as cell viability at 1000 molar ratio by trypan blue staining method; assay type: cell-based; settings: read-out: Activity
Raji [2] = test: Inhibition of 12-O-tetradecanoylphorbol-13-acetate-induced EBV-early antigen activation in human Raji cells assessed as EA induction at 1000 molar ratio relative to 12-O-tetradecanoylphorbol-13-acetate by immunofluorescence technique; assay type: cell-based; parameters: scale not given: the % may be the effect or the level left; settings: human gammaherpesvirus 4
Raji [3] = test: Inhibition of 12-O-tetradecanoylphorbol-13-acetate-induced EBV-early antigen activation in human Raji cells assessed as EA induction at 500 molar ratio relative to 12-O-tetradecanoylphorbol-13-acetate by immunofluorescence technique; assay type: cell-based; parameters: scale not given: the % may be the effect or the level left; settings: human gammaherpesvirus 4
Raji [4] = test: Inhibition of 12-O-tetradecanoylphorbol-13-acetate-induced EBV-early antigen activation in human Raji cells assessed as EA induction at 100 molar ratio relative to 12-O-tetradecanoylphorbol-13-acetate by immunofluorescence technique; assay type: cell-based; parameters: scale not given: the % may be the effect or the level left; settings: human gammaherpesvirus 4
Raji [5] = test: Inhibition of 12-O-tetradecanoylphorbol-13-acetate-induced EBV-early antigen activation in human Raji cells assessed as EA induction at 10 molar ratio relative to 12-O-tetradecanoylphorbol-13-acetate by immunofluorescence technique; assay type: cell-based; parameters: scale not given: the % may be the effect or the level left; settings: human gammaherpesvirus 4
[6] = Inhibition of 12-O-tetradecanoylphorbol-13-acetate-induced EBV-early antigen activation in human Raji cells assessed per 32 pmol TPA by immunofluorescence technique; assay type: cell-based, human gammaherpesvirus 4

Row | SMILES | IC50 [6] | viability at 1000 molar ratio [1] | Activity (Raji [2]) | Activity (Raji [3]) | Activity (Raji [4]) | Activity (Raji [5])
1 | CC(=O)OC1C[C@H]([C@H](C)CC/C=C(/C)C(=O)O)[C@@]2(C)CC=C3C(=CC[C@H]4C(C)(C)C(=O)CC[C@]34C)[C@]12C (some centres undefined) | 281 molar ratio | 70% | -0% | 26.4% | 74.6% | 95.3%
2 | CC1=C(/C=C/C(C)=C/C=C/C(C)=C/C=C/C=C(C)/C=C/C=C(C)/C=C/C2=C(C)CCCC2(C)C)C(C)(C)CCC1 [BETA CAROTENE] | 400 molar ratio | – | 8.6% | – | – | 100%
3 | C[C@H](CC(=O)C[C@@H](C)[C@H]1CC(=O)[C@@]2(C)C3=C(C(=O)C[C@]12C)[C@@]1(C)CCC(=O)C(C)(C)[C@@H]1CC3=O)C(=O)O [GANODERIC ACID E] | 281 molar ratio | 70% | -0% | 28.3% | 79% | 97.4%
4 | CC(=O)O[C@@H]1C(=O)C2=C(C(=O)C[C@H]3C(C)(C)C(=O)CC[C@]23C)[C@]2(C)C(=O)C[C@H]([C@H](C)CC(=O)CC(C)C(=O)O)[C@@]12C (some centres undefined) [GANODERIC ACID F] | 293 molar ratio | 70% | 3.6% | 28.5% | 77.1% | 98.7%
5 | C[C@H](CCC(=O)O)[C@H]1CC(=O)[C@@]2(C)C3=C(C(=O)C[C@]12C)[C@@]1(C)CCC(=O)C(C)(C)[C@@H]1C[C@@H]3O [LUCIDENIC ACID A] | 280 molar ratio | 70% | -0% | 22.7% | 73% | 96.1%
6 | COC(=O)C(C)CC(=O)C[C@@H](C)[C@H]1CC(=O)[C@@]2(C)C3=C(C(=O)[C@@H](OC(C)=O)[C@]12C)[C@@]1(C)CCC(=O)C(C)(C)[C@@H]1CC3=O (some centres undefined) [METHYL GANODERATE F] | 289 molar ratio | 70% | 2.3% | 26.4% | 75.3% | 100%
7 | COC(=O)CC[C@@H](C)[C@H]1CC(=O)[C@@]2(C)C3=C(C(=O)C[C@]12C)[C@@]1(C)CCC(=O)C(C)(C)[C@@H]1CC3=O [METHYL LUCIDENATE F] | 285 molar ratio | 70% | 2.1% | 26.8% | 75.4% | 98.3%

Now from value to compound, other results behind:

Row | IC50 [6] | SMILES | viability at 1000 molar ratio [1] | Activity (Raji [2]) | Activity (Raji [3]) | Activity (Raji [4]) | Activity (Raji [5])
8 | 284 molar ratio | C[C@H](CCC(=O)O)[C@H]1CC(=O)[C@@]2(C)C3=C(C(=O)[C@@H](O)[C@]12C)[C@@]1(C)CC[C@H](O)C(C)(C)[C@@H]1C[C@@H]3O [LUCIDENIC ACID C] | 70% | -0% | 24% | 72.6% | 93.1%
9 | 287 molar ratio | CC(=O)O[C@@H]1C(=O)C2=C(C(=O)C[C@H]3C(C)(C)C(=O)CC[C@]23C)[C@]2(C)C(=O)C[C@H]([C@H](C)CCC(=O)O)[C@@]12C [LUCIDENIC ACID D2] | 70% | 2% | 26.1% | 73.8% | 96.1%
10 | 286 molar ratio | CC(=O)O[C@@H]1C(=O)C2=C([C@@H](O)C[C@H]3C(C)(C)[C@@H](O)CC[C@]23C)[C@]2(C)C(=O)C[C@H]([C@H](C)CCC(=O)O)[C@@]12C [LUCIDENIC ACID P] | 70% | -0% | 27.5% | 74.2% | 96.6%
11 | 280 molar ratio | CC(=O)O[C@@H]1C(=O)C2=C(C(=O)C[C@H]3C(C)(C)[C@@H](O)CC[C@]23C)[C@]2(C)C(=O)C[C@H]([C@H](C)CCC(=O)O)[C@@]12C [LUDICENIC ACID E2] | 70% | -0% | 23.5% | 73.1% | 94%
12 | 287 molar ratio | COC(=O)CC[C@@H](C)[C@H]1CC(=O)[C@@]2(C)C3=C(C(=O)C[C@]12C)[C@@]1(C)CCC(=O)C(C)(C)[C@@H]1C[C@@H]3O [METHYL LUCIDENATE A] | 70% | -0% | 24.9% | 75.1% | 95%
13 | 290 molar ratio | COC(=O)CC[C@@H](C)[C@H]1CC(=O)[C@@]2(C)C3=C(C(=O)[C@@H](OC(C)=O)[C@]12C)[C@@]1(C)CCC(=O)C(C)(C)[C@@H]1CC3=O [METHYL LUCIDENATE D2] | 70% | 2.2% | 29.3% | 76.9% | 98%
14 | 288 molar ratio | COC(=O)CC[C@@H](C)[C@H]1CC(=O)[C@@]2(C)C3=C(C(=O)[C@@H](OC(C)=O)[C@]12C)[C@@]1(C)CC[C@H](O)C(C)(C)[C@@H]1CC3=O [METHYL LUCIDENATE E2] | 70% | 1.2% | 27.9% | 76% | 95.4%
15 | 275 molar ratio | COC(=O)CC[C@@H](C)[C@H]1CC(=O)[C@@]2(C)C3=C(C(=O)[C@@H](O)[C@]12C)[C@@]1(C)CC[C@H](O)C(C)(C)[C@@H]1CC3=O [METHYL LUCIDENATE L] | 70% | -0% | 21.7% | 71.9% | 92.6%
16 | 293 molar ratio | COC(=O)CC[C@@H](C)[C@H]1CC(=O)[C@@]2(C)C3=C(C(=O)[C@@H](OC(C)=O)[C@]12C)[C@@]1(C)CC[C@H](O)C(C)(C)[C@@H]1C[C@@H]3O [METHYL LUCIDENATE P] | 70% | 2.3% | 28.9% | 77.4% | 97.6%
17 | 283 molar ratio | COC(=O)CC[C@@H](C)[C@H]1C[C@H](O)[C@@]2(C)C3=C(C(=O)C[C@]12C)[C@@]1(C)CCC(=O)C(C)(C)[C@@H]1C[C@@H]3O [METHYL LUCIDENATE Q] | 70% | -0% | 24.6% | 73.7% | 95.4%
